The subject of assay [1] is mice (NOD). Nature of the assay: Effect on insulitis in NOD mice dosed intraperitoneally. In kind it is in vivo. Conditions: intraperitoneal, from 4 weeks of age, 3 times a week for four weeks, assessed at 14 weeks. The protocol: To investigate the effect of Vildagliptin or the combination “Vildagliptin+compound A” on insulitis or type I diabetes mellitus, mice (NOD) with a genetic predisposition to develop IDDM (insulin dependent diabetes mellitus) are treated with Vildagliptin or the combination “Vildagliptin+compound A”. The animals are dosed intraperitoneally from 4 weeks of age, 3 times a week for four weeks. Insulitis is assessed at 14 weeks and scored in a table. The mice are scored according to the method of Beales et al. (European Journal of Pharmacology 357 (1998) 221-225. 3 or more (DMSO and PBS) represents severe grade insulitis and 1-3 represents little infiltration (a score of 1 would represent low grade peri-insulitis).

The test system of assay [2] is non-obese diabetic (NOD) mice. Nature of the assay: Incidence of insulitis in NOD mice, supplementation in drinking water during pregnancy and lactation. The following applies: maternal drinking water through pregnancy and lactation, examined at 12 weeks of age. In kind it is in vivo. From the text:
F. Effect of Vildagliptin and the combination of “Vildagliptin+compound A” on incidence of Insulitis Diabetes-prone non-obese diabetic (NOD) mice in which females develop a 90% rate of autoimmune diabetes by the age of 25 weeks is studied in order to determine the effect of Vildagliptin and the combination of “Vildagliptin+compound A” on insulitis onset and development. Insulitis initiates at 3-5 weeks of age in NOD mice, as leukocytes begin to infiltrate around ducts and venules in both female and male mice. These infiltrates progress toward the islets, which become surrounded by concentric layers of pen-insular lymphocytes (non-destructive peri-insulitis). Destructive intra-islet insulitis then occurs, leading to extensive P cell destruction. All NOD mice display peri-insulitis, whereas intra-insulitis and overt Type 1 diabetes is restricted to about 70-80% of females and about 10-15% of males in the NOD mouse colony used in this instance. […] Mice which are examined and found to have evidence of insulitis, are then further scored as peri-islet (slight), less than 50% area of islet (medium) or more than 50% islet area (heavy), as indicative of the stage and/or severity of insulitis.

Take `N#C[C@@H]1CCCN1C(=O)CNC12CC3CC(CC(O)(C3)C1)C2` [vildagliptin, (S)-1-[(3-hydroxy-1-adamantyl)amino]acetyl-2-cyano-pyrrolidine]: the insulitis score entry in assay [1] is recorded as “unexpected good results in reducing insulitis”. In assay [2], the “insulitis (histological evidence within pancreatic islets)” value was “unexpected good results in reducing insulitis”.
